Patent publication US20260166159A1, “KRAS G12D DEGRADATION AGENT, AND PREPARATION METHOD AND USE THEREFOR” (LEADINGTAC PHARMACEUTICAL (SHAOXING) CO., LTD., priority 2022, published 2026)

Molecular target: T1, KRAS-G12D (Homo sapiens, UniProt P01116, G12D)
T1 construct: endogenous in cells; host or cells: A-427 (ATCC), AGS, AsPc-1, Panc 04.03
Assay: KRAS-G12D degradation assay (Western Blot), A-427 cells
Type: cell-based
Conditions: A427 cells, 24 h, class symbols; for Dmax: A-427
Procedure, shortened: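 Western blotting of lysates (5 μg protein) quantified KRAS against a β-actin reference after 24 h exposure to compound at final 0.03–3000 nM in 0.25% DMSO. Cells were A-427, AGS, AsPc-1 or Panc 04.03, all KRAS G12D, at 5×10^5/well. Degradation versus control yielded DC50 and Dmax.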

T1 sequence (P01116 1-188 isoform P01116-2 G12D): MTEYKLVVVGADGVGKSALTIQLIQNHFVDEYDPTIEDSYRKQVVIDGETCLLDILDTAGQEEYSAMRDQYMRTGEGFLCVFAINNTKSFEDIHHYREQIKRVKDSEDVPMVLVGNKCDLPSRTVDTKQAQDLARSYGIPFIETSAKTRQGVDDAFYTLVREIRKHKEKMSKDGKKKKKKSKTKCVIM

Compound | DC50 [nM] | Dmax [%]
C#Cc1c(F)ccc2cc(O)cc(-c3ncc4c(N5CC6CCC(C5)N6)nc(OCC5(CN6CCN(CCCC7CCN(C(=O)c8ccc(Cl)c(N9CCC(=O)NC9=O)c8)CC7)CC6)CCC5)nc4c3F)c12 [Example 24, 1-(5-(4-(3-(4-((1-(((4-(3,8-diazabicyclo[3.2.1]octan-3-yl)-7-(8-ethynyl-7-fluoro-3-hydroxynaphthalen-1-yl)-8-fluoropyrido[4,3-d]pyrimidin-2-yl)oxy)methyl)cyclobutyl)methyl)piperazin-1-yl)propyl)piperidine-1-carbonyl)-2-chlorophenyl)dihydropyrimidine-2,4(1H,3H)-dione] | ≤ 50 | 80 to 100
C#Cc1c(F)ccc2cc(O)cc(-c3ncc4c(N5CC6CCC(C5)N6)nc(OCC5(CN6CCN(CC7CCC8(CC7)CCN(C(=O)c7ccc(OC)c(N9CCC(=O)NC9=O)c7)CC8)CC6)CCC5)nc4c3F)c12 [Example 25, 1-(5-(9-((4-((1-(((4-(3,8-diazabicyclo[3.2.1]octan-3-yl)-7-(8-ethynyl-7-fluoro-3-hydroxynaphthalen-1-yl)-8-fluoropyrido[4,3-d]pyrimidin-2-yl)oxy)methyl)cyclobutyl)methyl)piperazin-1-yl)methyl)-3-azaspiro[5.5]undecane-3-carbonyl)-2-methoxyphenyl)dihydropyrimidine-2,4(1H,3H)-dione] | ≤ 50 | 50 to 80
C#Cc1c(F)ccc2cc(O)cc(-c3ncc4c(N5CC6CCC(C5)N6)nc(OCC(C)(C)CN5CCN(CC6CCC7(CC6)CCN(C(=O)c6ccc(OC)c(N8CCC(=O)NC8=O)c6)CC7)CC5)nc4c3F)c12 [Example 26, 1-(5-(9-((4-(3-((4-(3,8-diazabicyclo[3.2.1]octan-3-yl)-7-(8-ethynyl-7-fluoro-3-hydroxynaphthalen-1-yl)-8-fluoropyrido[4,3-d]pyrimidin-2-yl)oxy)-2,2-dimethylpropyl)piperazin-1-yl)methyl)-3-azaspiro[5.5]undecane-3-carbonyl)-2-methoxyphenyl)dihydropyrimidine-2,4(1H,3H)-dione] | 1000 to 10000 | 30 to 50
C#Cc1c(F)ccc2cc(O)cc(-c3ncc4c(N5CC6CCC(C5)N6)nc(OCC5(CN6CCN(CC7CCC8(CC7)CCN(C(=O)c7ccc(Br)c(N9CCC(=O)NC9=O)c7)CC8)CC6)CC5)nc4c3F)c12 [Example 29, 1-(5-(9-((4-((1-(((4-(3,8-diazabicyclo[3.2.1]octan-3-yl)-7-(8-ethynyl-7-fluoro-3-hydroxynaphthalen-1-yl)-8-fluoropyrido[4,3-d]pyrimidin-2-yl)oxy)methyl)cyclopropyl)methyl)piperazin-1-yl)methyl)-3-azaspiro[5.5]undecane-3-carbonyl)-2-bromophenyl)dihydropyrimidine-2,4(1H,3H)-dione] | ≤ 50 | 80 to 100
CCc1c(F)ccc2cc(O)cc(-c3ncc4c(N5CC6CCC(C5)N6)nc(OCC5(CN6CCN(CC7CCC8(CC7)CCN(C(=O)c7ccc(Cl)c(N9CCC(=O)NC9=O)c7)CC8)CC6)CC5)nc4c3F)c12 [Example 30, 1-(5-(9-((4-((1-(((4-(3,8-diazabicyclo[3.2.1]octan-3-yl)-7-(8-ethyl-7-fluoro-3-hydroxynaphthalen-1-yl)-8-fluoropyrido[4,3-d]pyrimidin-2-yl)oxy)methyl)cyclopropyl)methyl)piperazin-1-yl)methyl)-3-azaspiro[5.5]undecane-3-carbonyl)-2-chlorophenyl)dihydropyrimidine-2,4(1H,3H)-dione] | ≤ 50 | 50 to 80
C#Cc1c(F)ccc2cc(O)cc(-c3ncc4c(N5CC6CCC(C5)N6)nc(OC[C@@H]5CCCN5CCC5CCC6(CC5)CCN(C(=O)c5ccc(Cl)c(N7CCC(=O)NC7=O)c5)CC6)nc4c3F)c12 [Example 32, 1-(5-(9-(2-((S)-2-(((4-(3,8-diazabicyclo[3.2.1]octan-3-yl)-7-(8-ethynyl-7-fluoro-3-hydroxynaphthalen-1-yl)-8-fluoropyrido[4,3-d]pyrimidin-2-yl)oxy)methyl)pyrrolidin-1-yl)ethyl)-3-azaspiro[5.5]undecane-3-carbonyl)-2-chlorophenyl)dihydropyrimidine-2,4(1H,3H)-dione] | 1000 to 10000 | < 30
